Test results as given in ChEMBL document CHEMBL4680243, “N-benzyl 4,4-disubstituted piperidines as a potent class of influenza H1N1 virus inhibitors showing a novel mechanism of hemagglutinin fusion peptide interaction” (Eur J Med Chem, 2020).
pIC50: −log10 of the molar value.

Legend:
Type in all cases: cell-based, Influenza A virus (A/Puerto Rico/8/1934(H1N1))
[1] = (§1) Inhibition of Influenza A virus (A/PR 8/34 (H1N1)) hemagglutinin HA2 chain L99F mutant transfected in human HeLa cells assessed as reduction in low pH-indued polykaryon formation preincubated for 15 mins followed by pH 5.2 buffer addition and measured after 5 mins by giemsa staining based microscopic analysis
[2] = as §1, with “HA1” for “HA2”, “S326V” for “L99F”
[3] = as §1, with “HA1” for “HA2”, “1324T” for “L99F”

In the case of `COC(=O)C[C@H](NC(=O)OC(C)(C)C)C(=O)N(Cc1ccc(F)cc1)C1(C(=O)NCc2ccccc2)CCN(Cc2ccccc2)CC1`, the pIC50 [1] was < 4.00, the pIC50 [2] was < 4.00 and the pIC50 [3] was 5.49.
